Assay results reported in patent US10106502B2, “Direct inhibitors of Keap1-Nrf2 interaction as antioxidant inflammation modulators” (Rutgers, The State University of New Jersey, priority 2011, dated 2018).

How the values were obtained:
Keap1 Kelch domain [1] = target: T1, Keap1 Kelch domain (Homo sapiens, UniProt Q14145); experiment: FP assay, dose-response retest of HTS hits; type: binding; design: Human Keap1 Kelch domain protein was cloned into expression vector pET15b; inferred from vector pET15b and Ni-NTA purification) (N); made in house; host or cells: E. coli BL21 (DE3)
T1 sequence (Q14145 321-609 limits assumed): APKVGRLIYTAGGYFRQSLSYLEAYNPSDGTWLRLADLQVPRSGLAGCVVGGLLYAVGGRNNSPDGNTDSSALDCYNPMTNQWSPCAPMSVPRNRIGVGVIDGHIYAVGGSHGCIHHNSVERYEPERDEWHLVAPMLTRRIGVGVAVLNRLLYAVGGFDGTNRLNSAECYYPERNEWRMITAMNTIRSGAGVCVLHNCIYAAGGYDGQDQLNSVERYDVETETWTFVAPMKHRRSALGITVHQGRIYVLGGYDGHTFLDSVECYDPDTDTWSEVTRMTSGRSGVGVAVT
Procedure: Human Keap1 Kelch domain protein was cloned into expression vector pET15b and transformed into E. coli BL21 (DE3) strain. The protein was purified through Ni-NTA affinity column. Purified protein was stored in the buffer containing 20 mM HEPES (pH7.4), 5 mM DTT at −80° C.
2) 60 mL of 8 μM Ac-9mer-Nrf2 was prepared by taking 0.48 mL of 1 mM Ac-9mer-Nrf2 in 100% DMSO in 60 mL FP buffer 3) 500 mL of 400 nM Keap1 Kelch domain was prepared by taking 9 mL of 0.75 mg/mL Keap1 Kelch domain in 500 mL FP buffer.
10 nM FITC-9mer-Nrf2-NH2, 100 nM Kelch Kelch domain.
The first of these assays is an FP assay that uses a fluorescently labeled Nrf2 peptide amide as the probe and directly measures the displacement of fluorescent probe from the Nrf2-binding site of Keap1 Kelch domain by inhibitors via changes in fluorescence anisotropy. […] The second of the fluorescence-based assays is a time-resolved fluorescence energy transfer (TR-FRET) assay which uses an in situ labeling method we recently developed to attach a lanthanide chelate to Keap1 Kelch domain as the FRET donor and fluorescein-labeled Nrf2 peptide as the acceptor. One advantage of the TR-FRET assay is that it is less susceptible to compound interference than an FP assay.

[2] = system: CellSensor® ARE-bla Hep G2 cell line; experiment: cell-based ARE β-lactamase reporter assay; design: species or system human
Keap1 Kelch domain [3] = target: T1, Keap1 Kelch domain; experiment: SPR-based solution competition assay; type: binding; design: 40 nM of Keap1 Kelch domain was incubated in the presence of test compounds; inferred from vector pET15b and Ni-NTA purification of the one described Kelch preparation) (N); made in house; host or cells: E. coli BL21 (DE3)
[4] = Keap1-retest in dose, 8-point FP dose-response of HTS hits

With `O=C1CCCc2oc3c(cc(NS(=O)(=O)c4ccc5c6c(cccc46)C(=O)N5)c4ccccc43)c21` [BRD-K91732811-001-06-9, 1,2-Dihydro-2-oxo-N-(7,8,9,10-tetrahydro-7-oxobenzo[b]naphtho[2,1-d]furan-5-yl) benz[cd]indole-6-sulfonamide] the IC50 (Keap1 Kelch domain [1]; [4]) was 55 µM.
`Cc1ccc(S(=O)(=O)Nc2cc(C(C(=O)OC(C)C)C(=O)C(F)(F)F)c(O)c3ccccc23)c(C)c1` (racemic) [LH602, 4-[[(2,4-Dimethylphenyl)sulfonyl]amino]-1-hydroxy-α-(2,2,2-trifluoroacetyl)-2-naphthaleneacetic acid, 1-methylethyl ester] showed an EC50 ([2]; Homo sapiens, HepG2, read-out: EC50 of ARE-inducing activity) of 16 to 18 µM, an IC50 (Keap1 Kelch domain [1]; [4]) of 2.7 µM and an IC50 (Keap1 Kelch domain [1]; resynthesized compound) of 3 µM. The Kd (Keap1 Kelch domain [3]; Keap1 Kelch domain, SPR, read-out: Kd (Keap1 binding affinity)) was 1.7 µM.
With `O=C(O)[C@H]1CCCC[C@H]1C(=O)N1CCCCC1CN1C(=O)c2ccccc2C1=O` (relative stereo) [LH641, cis-2-(2-((1,3-dioxoisoindolin-2-yl)methyl)piperidine-1-carbonyl)cyclohexane carboxylic acid] the “binding to Keap1 Kelch domain (in words)” value (Keap1 Kelch domain [3]) was “complete loss of binding”.
With `O=C(O)[C@@H]1CCCC[C@@H]1C(=O)N1CCc2ccccc2C1CN1C(=O)c2ccccc2C1=O` (relative stereo) [LH601C/D] the “ARE-inducing activity (in words)” value [2] was “inactive”.
Compound `NS(=O)(=O)c1cc(C(=O)NC2CCSc3ccccc32)ccc1Cl` (stereo not drawn) [BRD-A83249228-001-07-1, 3-(Aminosulfonyl)-4-chloro-N-(3,4-dihydro-2H-1-benzothiopyran-4-yl)benzamide] has an IC50 (Keap1 Kelch domain [1]; [4]) of 135 µM.
In the case of `COc1cc(NS(=O)(=O)c2ccc(NC(=S)NC(=O)/C=C/c3ccco3)cc2)ncn1` [BRD-K42553821-001-05-9, 3-(2-Furanyl)-N-[[[4-[[(6-methoxy-4-pyrimidinyl)amino]sulfonyl]phenyl]amino]-thioxomethyl]-2-Propenamide], the IC50 (Keap1 Kelch domain [1]; [4]) is reported as 91 µM.
Compound `COc1ccc(C(C)=NNc2ccc([N+](=O)[O-])cc2S(=O)(=O)Nc2ccccc2C(=O)O)c(OC)c1` [BRD-K09114961-001-03-6, 2-[[[2-[2-[1-(2,4-dimethoxyphenyl)ethylidene]hydrazinyl]-5-nitrophenyl]sulfonyl]amino] benzoic acid] has an IC50 (Keap1 Kelch domain [1]; [4]) of 26 µM.
Compound `CC1=C[C@@H]2c3cccc4[nH]cc(c34)C[C@H]2N(C)C1` [BRD-K56215778-001-06-9, 8,9-Didehydro-6,8-dimethyl-ergoline] has an IC50 (Keap1 Kelch domain [1]; [4]) of 37 µM.
For `O=C(O)c1cc(N2C(=O)C=CC2=O)cc(N2C(=O)C=CC2=O)c1` [BRD-K11951445-001-04-1, 3,5-Bis(2,5-dihydro-2,5-dioxo-1H-pyrrol-1-yl)-benzoic acid], the IC50 (Keap1 Kelch domain [1]; [4]) was 19 µM.
